Data on eight compounds can be found in paper PMC5442124 (Scientific Reports, 2017).

The nature of series [1]: Bioaccumulation of DDTs in carp and carp tissues/organs in DDT spiked-sediment microcosm (food web). The class given is in vivo, Cyprinus carpio. Conditions: treatment group; for concentration at 28 days / concentration at 9 day: Cyprinus carpio (carp), other: spiked sediment-water system with T. tubifex as prey; for concentration at 28 days: brain, end of the experiments; for concentration at 9 day: whole fish (wet weight), whole carp, read-out: concentration in carp at steady state; for maximum concentration in gastrointestinal tract: first 5 days. Here is the method: (§1) The sediment was prepared in a glass aquarium with 3.6 kg soil (collected from China Agricultural University, and the physicochemical properties of the soil were as follows: clay, 34.8 ± 0.1%; silt, 10.0 ± 2.8%; sand, 55.2 ± 2.8%; organic matter, 24.4 ± 0.8 g/kg; and pH, 7.74 ± 0.05.) and 16 L de-chlorinated tap water, and incubated for seven days. The overlying water was discarded, and 400 g sediment (dry weight) was spiked with o,p’-DDT (50 ng/μL, 1600 μL) and p,p’-DDT (50 ng/μL, 1600 μL) in acetone. After the solvent was volatilized, the sediment was blended with the 3.6 kg sediment (dry weight) thoroughly. Dechlorinated tap water was added, and system was allowed to equilibrate for 48 h.
Environmentally relevant concentration exposure was conducted according to Organization for Economic Cooperation and Development (OECD section 305 and 315) test guidelinesn, [52]. […] T. tubifex is one of the most widespread and ubiquitous groups, which was considered to be a good bio-indicator[53], [54]. Carp are omnivorous demersal fish in fresh water ecosystems, which can serve as bio-indicators of environmental contaminants and play significant roles in assessing potential risk[44]. Adult T. tubifex and carp (2.0 ± 0.2 g, about 5 cm in length, ignore the gender) were obtained from Guan Yuan market (Beijing, China) and acclimatized in the laboratory for 2 weeks. T. tubifex (80 g) and ten fish were added into the sediment-water system for the exposure experiment. Twenty-seven glass aquariums with spiked sediment were cultivated at 14 h/10 h photoperiods and at 20 ± 2 °C for 28 days (nine aquariums were used to analyze the individual fish and T. tubifex worms, eighteen aquariums were used to analyze the tissue distribution and toxic effects). The overlying water was gently aerated and unchanged. Overlying water, fish (one from each aquariums), worms (about 1 g) and sediment were sampled on the 1st, 3ed, 5th, 9th, 14th, 21st, and 28th day. At the end of bioaccumulation experiments, all the fish and worms were transferred to un-spiked sediment for elimination experiments, respectively. Overlying water, fish (one from each aquariums), worms (about 1 g) and sediment were sampled on the 1st, 3ed, 5th, 7th, and 10th day. […] Fish were euthanized with an ice/water mixture.
(§2) The different tissues/organs of carp were extracted with different methods. Details of the extraction process please refer to the Supplementary Material. The lipid content of animals was measured according to Bligh and Dyer[55]. […] Details please refer to the Supplemental Material.

Series [2] can be described thus: Bioaccumulation of DDTs in T. tubifex in DDT spiked-sediment microcosm. As to conditions: for maximum concentration in T. tubifex / concentration at 28 day: treatment group; for maximum concentration in T. tubifex: fifth day; for concentration at 28 day: Tubifex tubifex, whole worm (wet weight), other: exposure in spiked sediment-water system, day 28. The class given is in vivo. Here is the method:
as §1
(§3) Environmentally relevant concentration exposure was conducted according to Organization for Economic Cooperation and Development (OECD section 305 and 315) test guidelinesn, [52]. Tubifex tubifex (Oligochaeta, Tubificidae) was chosen as prey, which could accumulate DDTs from sediment and transfer them to carp (Cyprinus carpio). T. tubifex is one of the most widespread and ubiquitous groups, which was considered to be a good bio-indicator[53], [54]. Carp are omnivorous demersal fish in fresh water ecosystems, which can serve as bio-indicators of environmental contaminants and play significant roles in assessing potential risk[44]. Adult T. tubifex and carp (2.0 ± 0.2 g, about 5 cm in length, ignore the gender) were obtained from Guan Yuan market (Beijing, China) and acclimatized in the laboratory for 2 weeks. T. tubifex (80 g) and ten fish were added into the sediment-water system for the exposure experiment. Twenty-seven glass aquariums with spiked sediment were cultivated at 14 h/10 h photoperiods and at 20 ± 2 °C for 28 days (nine aquariums were used to analyze the individual fish and T. tubifex worms, eighteen aquariums were used to analyze the tissue distribution and toxic effects). The overlying water was gently aerated and unchanged. Overlying water, fish (one from each aquariums), worms (about 1 g) and sediment were sampled on the 1st, 3ed, 5th, 9th, 14th, 21st, and 28th day. At the end of bioaccumulation experiments, all the fish and worms were transferred to un-spiked sediment for elimination experiments, respectively. Overlying water, fish (one from each aquariums), worms (about 1 g) and sediment were sampled on the 1st, 3ed, 5th, 7th, and 10th day. […] Fish were euthanized with an ice/water mixture.
The control treatments (twenty-seven glass aquariums: nine aquariums were used to analyze the individual fish and T. tubifex worms, eighteen aquariums were used to analyze the tissue distribution and toxic effects) were composed of worms, fish and un-spiked sediment. The cultivation, sample time and dissection procedures were the same to the exposure experiments.
as §2

Series [3] can be described thus: Elimination of DDTs from carp and carp tissues/organs after transfer to un-spiked sediment. The class given is in vivo, Cyprinus carpio. Conditions: for percentage eliminated from brain: carp brain; for percentage eliminated from brain / percentage eliminated from kidney: end of experiments; for elimination percentage from gallbladder: carp gallbladder; for elimination percentage in heart: carp heart; for percentage eliminated from kidney: carp kidney. Here is the method:
as §3, §2

A short description of series [4]: Elimination of DDTs in T. tubifex after transfer to un-spiked sediment. Conditions: elimination experiment in un-spiked sediment. Type of series: in vivo. Here is the method:
as §3, §2

Details of series [5]: method as in PMID 14194764. Conditions: after 6 days’ dietary exposure to DDT (1500 μg/g); cited from earlier work.
A further series has as its system aquatic life. The arrangement: method as in earlier work. Conditions: Canadian Sediment Quality Guidelines for the protection of aquatic life; cited from earlier work.
For series [6] the following is noted: rainbow trout exposed in water; cited from earlier work.

`ClC(Cl)=C(c1ccc(Cl)cc1)c1ccc(Cl)cc1` [p,p’-DDE] displayed a concentration at 28 days in series [1] (carp) of 41.6 ± 0.5 ng/g. In series [1] (carp, 21st day), the “highest concentration in kidney” value was determined as 46.9 ± 0.6 ng/gwwt and the “maximum concentration in muscle” value was 11.7 ± 2.6 ng/gwwt. The “maximum concentration in T. tubifex, control group” value in series [2] (control group (un-spiked sediment), 14th day) is recorded as 28.2 ± 1.1 ng/gwwt. The “maximum concentration in T. tubifex” value in series [2] came out at 21.7 ± 0.8 ng/gwwt. Further, in series [3], the “percentage eliminated from brain” value was found to be 52.8%, the “elimination percentage from gallbladder” value is 50.8%, the “elimination percentage in heart” value is 59.9% and the “percentage eliminated from kidney” value amounted to 48.7%. Moreover, the “elimination efficiency in T. tubifex” value in series [4] came to 25.7%.

Take `Clc1ccc(C(c2ccccc2Cl)C(Cl)(Cl)Cl)cc1` (centres unmarked) [o,p’-DDT]: the concentration at 9 day in series [1] (9th day) stood at 39.1 ± 0.3 ng/g. Further, in series [1] (carp, 9th day), the “concentration in brain (maximum)” value is reported as 40.3 ± 1.8 ng/gwwt and the “maximum concentration in kidney” value is listed as 96.2 ± 2.0 ng/gwwt. For the same compound, in series [1] (carp), the “maximum concentration in gastrointestinal tract” value is recorded as 40.9 ± 0.9 ng/gwwt. Moreover, in series [2], the concentration at 28 day was determined as 5.6 ± 0.1 ng/g and the “maximum concentration in T. tubifex” value is on record as 74.6 ± 1.8 ng/gwwt. In series [3], the “elimination percentage in heart” value came to 51.9%. For the same compound, the “elimination efficiency in T. tubifex” value in series [4] came out at 65.7%.

Consider `Clc1ccc(C(c2ccc(Cl)cc2)C(Cl)(Cl)Cl)cc1` [DDT, Dichlorodiphenyltrichloroethane], for which, in series [5], the “ratio DDT:DDD:DDE detected in the livers of rats” value was “approximately 3”. Also, in the series on aquatic life, the “effects range-low (ERL) value in sediments” value was 1 ng/g.

In the case of `ClC(Cl)=C(c1ccc(Cl)cc1)c1ccccc1Cl` [o,p’-DDE], in series [1] (carp, 9th day), the “concentration in brain (maximum)” value is 3.1 ± 0.1 ng/gwwt. The “maximum concentration in T. tubifex” value in series [2] was found to be 2.1 ± 0.2 ng/gwwt. Further, in series [3], the “percentage eliminated from brain” value turned out to be 55.0%, the “elimination percentage from gallbladder” value was found to be 24.1% and the “percentage eliminated from kidney” value was 47.5%. Further, in series [4], the “elimination efficiency in T. tubifex” value was 39.5%.

Compound `Clc1ccc(C(c2ccc(Cl)cc2)C(Cl)Cl)cc1` [p,p’-DDD] showed a concentration at 28 days in series [1] (carp) of 68.4 ± 0.6 ng/g. In addition, in series [1] (carp, 28th day), the “maximum concentration in kidney” value was 89.9 ± 3.7 ng/gwwt. Further, in series [3], the “percentage eliminated from brain” value is 61.4%, the “elimination percentage from gallbladder” value is 64.1%, the “elimination percentage in heart” value stood at 69.6% and the “percentage eliminated from kidney” value is reported as 63.9%. Further, in series [4], the “elimination efficiency in T. tubifex” value worked out at 58.2%.

Turning to `Clc1ccc(C(c2ccc(Cl)cc2)C(Cl)(Cl)Cl)cc1` [p,p’-DDT], in series [1] (9th day), the concentration at 9 day came to 57.3 ± 3.1 ng/g. Further, in series [1] (carp, 9th day), the “concentration in brain (maximum)” value came to 49.1 ± 1.0 ng/gwwt and the “maximum concentration in kidney” value is 124.0 ± 2.6 ng/gwwt. For the same compound, the “maximum concentration in gastrointestinal tract” value in series [1] (carp) turned out to be 43.2 ± 0.5 ng/gwwt. In series [2], the concentration at 28 day was 18.4 ± 2.2 ng/g and the “maximum concentration in T. tubifex” value is 165.5 ± 2.7 ng/gwwt. Also, the “elimination efficiency in T. tubifex” value in series [4] came out at 73.6%.

`Clc1ccc(C(c2ccccc2Cl)C(Cl)Cl)cc1` (centres unmarked) [o,p’-DDD] returned a concentration at 28 days in series [1] (carp) of 45.7 ± 0.3 ng/g. In addition, in series [1] (carp, 28th day), the “maximum concentration in kidney” value is recorded as 73.5 ± 1.9 ng/gwwt. For the same compound, in series [3], the “percentage eliminated from brain” value came out at 65.5%, the “elimination percentage from gallbladder” value was 66.9%, the “elimination percentage in heart” value is listed as 72.5% and the “percentage eliminated from kidney” value is 65.4%. For the same compound, the “elimination efficiency in T. tubifex” value in series [4] came to 49.0%.

Regarding `Oc1c(Cl)c(Cl)c(Cl)c(Cl)c1Cl` [pentachlorophenol], in series [6], the “dose eliminated in feces and bile” value is 30%; the “dose eliminated in urine” value is 20%; the “dose eliminated through the gills” value is given as 50%.
